# Experiments:
# [1] = system: ATZ in wild-type mouse embryonic fibroblast (MEF) cell line; test: ATZ levels in wild-type (Atg5+/+) MEF cell line; assay type: cell-based, murine
# Source text: Cell Lines The human epidermal HeLa cell line with doxycycline-regulated expression of ATZ (HTO/Z) has been described previously (1). HTO/M and HTO/Saar are HeLa cell lines with doxycycline-regulated expression of wild type AT and the AT Saar variant, respectively (1). A murine embryonic fibroblast cell line (MEF) with targeted disruption of Atg5 (2) was engineered for stable expression of ATZ using the previously described pRc/RSV-ATZ expression plasmid (3). A wild type MEF cell line was also engineered for stable expression of ATZ in the same way to serve as control. For experiments with CBZ, the inducible cell lines were cultured in the absence of doxycycline for at least 4 weeks for maximal expression of AT. The cells were then subcultured into separate monolayers in fresh complete growth medium and incubated for 48 hours in the absence or presence of CBZ or rapamycin (RAP). CBZ or RAP were added to the growth medium. The duration of incubation with CBZ was determined to be optimal at 48 hours based on experiments in which the duration was varied from 12 to 72 hours. Doses of CBZ were based on previous studies of its effects in cell lines (5,6). […]
# For immunoblot analysis to detect AT, GAPDH or LC3, cells were lysed in 50 mM Tris-HCl, 150 mM NaCl, 1% NP-40, pH 8.0. Protein levels were quantified using the BCA protein assay (Pierce Biotechnology, Rockford, Ill.). […]
# ATZ in the liver = test: Hepatic load of ATZ in vivo in PiZ×GFP-LC3 mice (immunoblot, globule histology); parameters: species or system mouse
# Source text: Transgenic Mice PiZ mice that have been bred into the C57/BL6 background have been described previously (1). For the second and third series of experiments with CBZ we used PiZ mice that were re-derived onto the FVB/N background for a move into a new animal facility. The transgene that was used to generate the PiZ mouse is a genomic fragment of DNA that contains the coding regions of the ATZ gene together with introns and ˜2 kilobases of upstream and downstream flanking regions (10). […] In this perspective it is not an exact phenocopy of the classical form of AT deficiency. In particular it cannot be a model for the loss-of-function mechanisms associated with the classical form of AT deficiency. It is known to have abundant expression of ATZ in hepatocytes and other cell types that express ATZ in humans (11). In the liver there are abundant ATZ-containing intrahepatocytic globules and inflammation that is characteristic of what is seen in the human liver (11,12). […] Taken together, these observations indicate that the PiZ mouse is an appropriate model for the gain-of-toxic function mechanism that is responsible for liver damage in the classical form of AT deficiency. Indeed, the fact that these mice are endowed with endogenous AT function and therein normal levels of AT in the serum and body fluids make them an even more ‘pure’ model for liver damage by gain-of-toxic function. PiZ×GFP-LC3 mice, which generated green fluorescent autophagosomes, have been described previously (2). PiZ×IKKβ.hep were generated by mating of PiZ to IKKβ.hep, which has conditional hepatocyte-specific disruption of NF.B activation (M. Karin, 17). There is increased injury in the liver of these mice as evidenced by the hepatic hydroxyproline content, 153.3% of that in the PiZ mouse (FIG. 7).
# Histology Sections of liver tissue were stained with hematoxylin and eosin, PAS, PAS after diastase treatment, TUNEL, PCNA, Ki67 and Sirius Red using standard techniques (18). Previous methods for staining with antibody to smooth muscle actin were used (19). Each was examined by the pathologist (GM) who was completely blinded to the experimental protocol. […] The number of inflammatory nodules, AT-containing globules and autophagosomes were each quantified blindly by counting cells in 6 microscopic fields of 10 different sections for each liver. The number of nuclei, as determined by Hoechst staining, was used to exclude the possibility that different numbers of cells were counted in liver sections from mice treated with CBZ as compared to controls. Hepatic hydroxyproline concentration was determined by a well-established protocol (20,21). […]
# For immunoblot on liver, the liver was snap frozen in liquid nitrogen and stored at −80° C. […] Total protein concentration was measured by BCA assay (Pierce). […]
# [2] = system: smooth muscle actin, collagen IA and TGFβ mRNA; test: Stellate cell activation markers in liver of PiZ mice by Q-PCR; assay type: in vivo, mouse
# Procedure: Quantitative PCR (Q-PCR) Levels of mRNA from smooth muscle actin, collagen IA and TGFβ in liver of PiZ mice were determined by Q-PCR using primers from ABI and previous described conditions (19).
# PiZ mice = test: Pulmonary fibrosis in PiZ mice (Sirius Red staining with quantitative morphometry); assay type: in vivo, mouse; settings: 3-month-old PiZ mice, 200 mg/kg/day, 5 days per week for 3 weeks
# Procedure: Experiments were performed to determine if CBZ can mediate a decrease in lung fibrosis in the PiZ mouse in vivo. 3-month-old PiZ mice were treated 5 days per week for 3 weeks with diluent DMSO or CBZ 200 mg/kg/day (n=3-8 mice per group). In this series of experiments lung fibrosis was assayed by Sirius Red staining with quantitative morphometry.
# [3] = PiZ×GFP-LC3 mice, 250 mg kg-1 day-1 for 2 weeks by gavage
smiles,measurement,setting,value
"NC(=O)N1c2ccccc2C=Cc2ccccc21 [CBZ, 5H-dibenz [b,f]azepine-5-carboxamide]",levels of insoluble ATZ,[1]; wild-type MEF cell line,decrease
same,levels of soluble ATZ,[1]; wild-type MEF cells,decrease
same,intrahepatocytic ATZ-containing globules,ATZ in the liver; [3],marked decrease
same,"total, insoluble, and soluble ATZ in the liver",ATZ in the liver; [3],marked decrease
same,"decrease in globule-containing hepatocytes, factor","ATZ in the liver; quantitative morphometry, 250 mg kg-1 day-1 for 2 weeks, P<0.001",3.36
same,collagen 1A level,[2]; not statistically significant,decreased
same,transforming growth factor b level,[2]; not statistically significant,decreased
same,smooth muscle actin level,[2]; reached statistical significance,decreased
same,Sirius red staining of lung (pulmonary fibrosis),PiZ mice,statistically significant reduction

# From patent US9511074B2, “Methods of treating disorders associated with protein polymerization” (UNIVERSITY OF PITTSBURGH—OF THE COMMONWEALTH SYSTEM OF …, priority 2009, dated 2016)
